Where “and” joins values, the source holds several entries; their conditions need not be identical. Equal entries are not always repeated. Toxic doses and inconclusive results are not listed. Rule for the calls: active = survival T/C of 150% or more; inactive = T/C below 125% in these data.
System: P388 leukemia ip, CD2F1 mice, survival T/C
Experiment: NCI In Vivo Anticancer Drug Screen. Data for tumor model P388 Leukemia (intraperitoneal) in CD2F1 (CDF1) mice
Conditions: endpoint: median survival time, higher = longer survival
Outline: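 Mice carrying the transplanted tumor received test compound or vehicle. Survival was recorded in each group, and the value is the treated-group measurement divided by that of the vehicle-treated control group.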

[1] = dose: 25.0 mg/kg/injection, schedule: Q01DX009 (ip), vehicle: saline with Tween-80
[2] = dose: 60.0 mg/kg/injection, schedule: Q01DX005 (ip), vehicle: saline with Tween-80
[3] = dose: 120.0 mg/kg/injection, schedule: Q01DX005 (ip), vehicle: saline with Tween-80
[4] = dose: 240.0 mg/kg/injection, schedule: Q01DX005 (ip), vehicle: saline with Tween-80

Measured: T/C

CCOC(=O)N(C)N=NC
inactive: dose: 3.75 mg/kg/injection, schedule: Q01DX005 (ip), vehicle: saline 100 % of control | dose: 7.5 mg/kg/injection, schedule: Q01DX005 (ip), vehicle: saline 107 % of control and 109 % of control | dose: 15.0 mg/kg/injection, schedule: Q01DX005 (ip), vehicle: saline 105 % of control | dose: 30.0 mg/kg/injection, schedule: Q01DX005 (ip), vehicle: saline 120 % of control

CCCCNCC(O)c1cc2c(Cl)cc(Cl)cc2c2cc(C(F)(F)F)ccc12 (configuration not stated)
inactive: dose: 6.25 mg/kg/injection, schedule: Q01DX009 (ip), vehicle: saline with Tween-80 98 % of control | dose: 12.5 mg/kg/injection, schedule: Q01DX009 (ip), vehicle: saline with Tween-80 106 % of control | [1] 102 % of control

[N-]=[N+]=NCC(=O)N1c2ccccc2Sc2ccccc21
inactive: dose: 25.0 mg/kg/injection, schedule: Q01DX009 (ip), vehicle: other 108 % of control | dose: 50.0 mg/kg/injection, schedule: Q01DX009 (ip), vehicle: other 103 % of control | dose: 100.0 mg/kg/injection, schedule: Q01DX009 (ip), vehicle: other 95 % of control | dose: 200.0 mg/kg/injection, schedule: Q01DX009 (ip), vehicle: other 108 % of control

O=[N+]([O-])C1(Cl)CCC(Cl)([N+](=O)[O-])CC1 (configuration not stated)
inactive: dose: 100.0 mg/kg/injection, schedule: Q01DX001 (ip), vehicle: Klucel (hydroxypropylcellulose) (HPC) 100 % of control | dose: 200.0 mg/kg/injection, schedule: Q01DX001 (ip), vehicle: Klucel (hydroxypropylcellulose) (HPC) 104 % of control

CC1(N2CCCCC2)C(=O)NC(=O)N(C2CCCCC2)C1=O (configuration not stated)
inactive: dose: 60.0 mg/kg/injection, schedule: Q01DX005 (ip), vehicle: Klucel (hydroxypropylcellulose) (HPC) 88 % of control | dose: 120.0 mg/kg/injection, schedule: Q01DX005 (ip), vehicle: Klucel (hydroxypropylcellulose) (HPC) 95 % of control | dose: 240.0 mg/kg/injection, schedule: Q01DX005 (ip), vehicle: Klucel (hydroxypropylcellulose) (HPC) 89 % of control

CSC(=N/O)/C(=N\O)SC
inactive: dose: 12.5 mg/kg/injection, schedule: Q01DX009 (ip), vehicle: Klucel (hydroxypropylcellulose) (HPC) 107 % of control | dose: 25.0 mg/kg/injection, schedule: Q01DX009 (ip), vehicle: Klucel (hydroxypropylcellulose) (HPC) 99 % of control | dose: 50.0 mg/kg/injection, schedule: Q01DX009 (ip), vehicle: Klucel (hydroxypropylcellulose) (HPC) 100 % of control and 102 % of control | dose: 200.0 mg/kg/injection, schedule: Q01DX009 (ip), vehicle: Klucel (hydroxypropylcellulose) (HPC) 89 % of control

Cc1cc(C2(c3cc(C)c(O)c(Br)c3)OS(=O)(=O)c3ccccc32)cc(Br)c1O
inactive: [2] 99 % of control | [3] 102 % of control | [4] 90 % of control

CN(C)CCC(=O)c1ccc([N+](=O)[O-])cc1
inactive: [1] 94 % of control | dose: 50.0 mg/kg/injection, schedule: Q01DX009 (ip), vehicle: saline with Tween-80 113 % of control | dose: 100.0 mg/kg/injection, schedule: Q01DX009 (ip), vehicle: saline with Tween-80 108 % of control | dose: 200.0 mg/kg/injection, schedule: Q01DX009 (ip), vehicle: saline with Tween-80 106 % of control

O=C1NN2CCCN=C2c2cnccc21
inactive: dose: 50.0 mg/kg/injection, schedule: Q01DX005 (ip), vehicle: saline 110 % of control | dose: 100.0 mg/kg/injection, schedule: Q01DX005 (ip), vehicle: saline 97 % of control | dose: 200.0 mg/kg/injection, schedule: Q01DX005 (ip), vehicle: saline 89 % of control

Nc1ccc(Cl)cc1C(=O)c1ccccc1Cl
inactive: [2] 96 % of control | [3] 96 % of control | [4] 90 % of control

CCOC(=O)c1ccc(NCc2cccc([N+](=O)[O-])c2)cc1
inactive: dose: 100.0 mg/kg/injection, schedule: Q04DX003 (ip), vehicle: saline 109 % of control | dose: 200.0 mg/kg/injection, schedule: Q04DX003 (ip), vehicle: saline 101 % of control | dose: 400.0 mg/kg/injection, schedule: Q04DX003 (ip), vehicle: saline 101 % of control

O=C(OC(c1ccccc1)(C(F)(F)F)C(F)(F)F)c1ccc(Cl)cc1
inactive: dose: 100.0 mg/kg/injection, schedule: Q04DX002 (ip), vehicle: Klucel (hydroxypropylcellulose) (HPC) 92 % of control | dose: 200.0 mg/kg/injection, schedule: Q04DX002 (ip), vehicle: Klucel (hydroxypropylcellulose) (HPC) 98 % of control | dose: 400.0 mg/kg/injection, schedule: Q04DX002 (ip), vehicle: Klucel (hydroxypropylcellulose) (HPC) 97 % of control

C=CC(O)CC#N (configuration not stated)
inactive: dose: 18.75 mg/kg/injection, schedule: Q01DX009 (ip), vehicle: saline with Tween-80 102 % of control | dose: 37.5 mg/kg/injection, schedule: Q01DX009 (ip), vehicle: saline with Tween-80 102 % of control | dose: 75.0 mg/kg/injection, schedule: Q01DX009 (ip), vehicle: saline with Tween-80 108 % of control

— PubChem BioAssay AID330 (DTP/NCI, 2004)
